Test results from patent US20230346735A1, “Nutritional Composition Comprising Carnitine and Method for Treating or Preventing an Infection in a Mammal” (priority 2020, published 2023).
Marks after values point to notes of the source that are not given here.

Assays:
SARS-CoV-2 = test: microbe, parasite or virus in culture; format: cell-based
C-Reactive Protein (CRP) = test: Human study, serum ELISA, CRP; format: in vivo
Method: A human study was run with a total of 80 healthy male and female subjects ranging from 21 to 65 years of age, who were active (i.e. 30 minutes per day of moderate activity, 3 days per week) are randomized into two groups. […] Seventy-three subjects completed the trial and biomarker data were analyzed from the sera of the 73 completers. Sera were collected for analysis of C-Reactive Protein (CRP), ACE 1, ACE 2, TMPRSS 2, the Tumor Necrosis Factor alpha (TNF-alpha), and Furin at baseline in the beginning of the trial, at week 5 and 48 hr after an exercise challenge as described (Clinicaltrials.gov NCT04420377). The exercise challenge serves as surrogate to the inflammation stimulus.
To obtain human sera, venous blood was extracted by venipuncture of the antecubital vein using a 21-gauge syringe and collected into a 10 mL EDTA vacutainer tube (BD Vacutainer®, Becton, Dickinson and Company, Franklin Lakes, NJ) by a certified phlebotomist. […] Human ACE-1, ACE-2, TMPRSS2, Furin, CRP and TNF-alpha protein levels were assessed using commercially available ELISA kits, according the manufacturer recommendations, ACE-1 (R&D systems Inc., Minneapolis, MN, USA), ACE-2 (RayBiotech inc., Peachtree Corners, GA), TMPRSS2 (Novus Biologicals, Littleton, CO), CRP (R&D Systems Inc., Minneapolis, MN), TNF-alpha (Novus Biologicals, Littleton, CO), and Furin (Sigma Aldrich, St. Louis, MO). […]

catalase = test: Antioxidant capacity: catalase in exercised rats; format: in vivo, rat; settings: 6 weeks
Method: Fifty-six (56) Male Wistar rats that were 8-week old were obtained. The rats were reared at the temperature of 22 ± 2° C., the humidity of 55 ± 5%, and with a 12-hrs light-12-hrs dark cycle. All procedures involving rats were conducted in strict compliance with the relevant laws, the Animal Welfare Act, Public Health Services Policy, and guidelines established by the Institutional Animal Care and Use Committee of the Institute of the contracted University which completed the study.
After a week of the adaptation period, the rats were divided into eight equal groups containing seven rats each. The initial body weights of the rats were similar in all the groups (214.53 grams ± 4.67; P > 0.05).
Groups 1 and 2 were not subjected to an exercise routine. Groups 3-8 were subjected to an exercise regimen consisting of a week training period with an incremental exercise capacity described below. After the week training period the exercise regimen followed was each rat in Groups 3-8 were subjected to 6 weeks of running at 25 m/min during 45 min […]. […] These correspond to 0, 250, 500, 1000, 2000 and 4000 mg per day for humans, respectively.
The exercised rats were subjected to treadmill exercise on a motorized rodent treadmill (Commat Limited, Ankara, Turkey). The treadmill contained a stimulus grid at the back end of the treadmill giving an electric shock when the animal placed its paw on the grid. […] To eliminate the diurnal variations, all exercise tests were applied during the same time of the day. The week of training period was provided as pre-training practice for the animals to get familiar with the treadmill equipment and handling. In doing so, the rats in the exercise training groups were accustomed by treadmill exercise over 5 days such that: (i) 1st day, 10 m/min for 10 min, (ii) 2nd day, 20 m/min for 10 min, (iii) 3rd day, 25 m/min for 10 min, (iv) 4th day, 25 m/min for 20 min and (v) 5th day, 25 m/min for 30 min. After the training period, the rats in treadmill exercise groups ran on the treadmill 25 m/min for 45 min/ per day and five days per week for 6 weeks according to the protocol described by Sahin et al. Capsaicinoids Improve the Consequences of Physical Activity. Toxicol Rep. 2018;5:598-607, which is hereby incorporated by reference.
The exercise regimen was used to induce an inflammation and oxidative stress conditions. […] The results of malondialdehyde, superoxide dismutase, catalase, and glutathione peroxidase for each rat group are shown in TABLE 2.

ACE-1 = ACE-1 mRNA expression in Calu-3, RT real-time PCR; format: cell-based, human; settings: Calu-3, 50 to 1,000 uM, 24 hr pre-treatment
TMPRSS2 = test: Rat plasma serum ELISA, TMPRSS2; format: in vivo; settings: exercised rats, FIG. 5D

Question: Which results are given for `C[N+](C)(C)C[C@H](O)CC(=O)[O-]` [L-carnitine]?
Answer: virus growth (plaque assay) (SARS-CoV-2): successful at inhibiting virus growth; IC50 (SARS-CoV-2; Severe acute respiratory syndrome coronavirus 2, Calu-3, read-out: IC50, inhibition of Calu-3 infection): 139 µM; plasma CRP concentration, mean diff Group A versus Group B (C-Reactive Protein (CRP); at 48 hr-Post, p<0.005): -0.55 mg/L; serum CRP levels (C-Reactive Protein (CRP); from baseline after 5 weeks of supplementation, compared to placebo group): significantly lower; CAT (catalase; Car200: 200 mg/kg oral gavage, no exercise): 147.19±2.01^de U/mg protein; CAT (catalase; Ex+Car25: exercise, 25 mg/kg oral gavage): 144.55±3.21^de U/mg protein; CAT (catalase; Ex+Car50: exercise, 50 mg/kg oral gavage): 152.72±2.50^cd U/mg protein; CAT (catalase; Ex+Car100: exercise, 100 mg/kg oral gavage): 162.11±1.97^bc U/mg protein; CAT (catalase; Ex+Car200: exercise, 200 mg/kg oral gavage): 170.77±2.57^b U/mg protein; CAT (catalase; Ex+Car400: exercise, 400 mg/kg oral gavage): 186.10±2.50^a U/mg protein; ACE-1 mRNA levels (ACE-1): didn’t not change; serum TMPRSS2 (TMPRSS2): controlling TMPRSS2
